What follows are molecules tested against NAD-dependent protein deacetylase HST2 (Saccharomyces cerevisiae S288c, UniProt P53686) (assay: Binding affinity to Saccharomyces cerevisiae Hst2 by isothermal titration calorimetry).
Chain of NAD-dependent protein deacetylase HST2 (P53686 whole entry): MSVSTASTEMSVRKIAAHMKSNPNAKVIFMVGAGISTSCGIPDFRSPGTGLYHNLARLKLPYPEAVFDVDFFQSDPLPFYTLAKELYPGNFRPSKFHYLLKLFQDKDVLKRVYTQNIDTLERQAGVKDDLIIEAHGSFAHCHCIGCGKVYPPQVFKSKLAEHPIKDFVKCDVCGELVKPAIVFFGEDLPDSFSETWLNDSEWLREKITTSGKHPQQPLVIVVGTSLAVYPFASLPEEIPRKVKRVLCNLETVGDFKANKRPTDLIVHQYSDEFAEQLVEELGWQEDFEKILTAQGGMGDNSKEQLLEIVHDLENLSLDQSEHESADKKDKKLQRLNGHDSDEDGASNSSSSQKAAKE

CC(=N)NCCCC[C@H](NC(=O)CNC(=O)CNC(=O)[C@@H](NC(=O)[C@H](CO)NC(=O)[C@@H](N)CCCCN)[C@@H](C)O)C(=O)N[C@@H](C)C(=O)N1CCC[C@H]1C(=O)N[C@@H](CCCN=C(N)N)C(=O)N[C@@H](CCCCN)C(=O)N[C@@H](CCC(N)=O)C(=O)O and C[C@H](NC(=O)[C@H](CCCCNC(N)=O)NC(=O)CNC(=O)CNC(=O)[C@@H](NC(=O)[C@H](CO)NC(=O)[C@@H](N)CCCCN)[C@@H](C)O)C(=O)N1CCC[C@H]1C(=O)N[C@@H](CCCN=C(N)N)C(=O)N[C@@H](CCCCN)C(=O)N[C@@H](CCC(N)=O)C(=O)O are the same in Kd: 3.3 µM for the first, 3.3 µM for the second.

C[C@H](NC(=O)[C@H](CCCCNC(=N)N)NC(=O)CNC(=O)CNC(=O)[C@@H](NC(=O)[C@H](CO)NC(=O)[C@@H](N)CCCCN)[C@@H](C)O)C(=O)N1CCC[C@H]1C(=O)N[C@@H](CCCNC(=N)N)C(=O)N[C@@H](CCCCN)C(=O)N[C@@H](CCC(N)=O)C(=O)O and CC(=S)NCCCC[C@H](NC(=O)CNC(=O)CNC(=O)[C@@H](NC(=O)[C@H](CO)NC(=O)[C@@H](N)CCCCN)[C@@H](C)O)C(=O)N[C@@H](C)C(=O)N1CCC[C@H]1C(=O)N[C@@H](CCCNC(=N)N)C(=O)N[C@@H](CCCCN)C(=O)N[C@@H](CCC(N)=O)C(=O)O are the same in Kd: 3.3 µM for the first, 3.3 µM for the second.

C[C@H](NC(=O)[C@H](CCCCNC(=O)CO)NC(=O)CNC(=O)CNC(=O)[C@@H](NC(=O)[C@H](CO)NC(=O)[C@@H](N)CCCCN)[C@@H](C)O)C(=O)N1CCC[C@H]1C(=O)N[C@@H](CCCNC(=N)N)C(=O)N[C@@H](CCCCN)C(=O)N[C@@H](CCC(N)=O)C(=O)O and C[C@H](NC(=O)[C@H](CCCCNC(=O)CF)NC(=O)CNC(=O)CNC(=O)[C@@H](NC(=O)[C@H](CO)NC(=O)[C@@H](N)CCCCN)[C@@H](C)O)C(=O)N1CCC[C@H]1C(=O)N[C@@H](CCCNC(=N)N)C(=O)N[C@@H](CCCCN)C(=O)N[C@@H](CCC(N)=O)C(=O)O are the same in Kd: 3.3 µM for the first, 3.3 µM for the second.

Going from CCCC(=O)NCCCC[C@H](NC(=O)CNC(=O)CNC(=O)[C@@H](NC(=O)[C@H](CO)NC(=O)[C@@H](N)CCCCN)[C@@H](C)O)C(=O)N[C@@H](C)C(=O)N1CCC[C@H]1C(=O)N[C@@H](CCCN=C(N)N)C(=O)N[C@@H](CCCCN)C(=O)N[C@@H](CCC(N)=O)C(=O)O to C[C@H](NC(=O)[C@H](CCCCNC(=O)C(F)F)NC(=O)CNC(=O)CNC(=O)[C@@H](NC(=O)[C@H](CO)NC(=O)[C@@H](N)CCCCN)[C@@H](C)O)C(=O)N1CCC[C@H]1C(=O)N[C@@H](CCCN=C(N)N)C(=O)N[C@@H](CCCCN)C(=O)N[C@@H](CCC(N)=O)C(=O)O, the Kd falls from 16 µM to 3.3 µM (4.8-fold). The second binds more tightly here.

Source: ChEMBL document CHEMBL1156528, “Acetyl-lysine analog peptides as mechanistic probes of protein deacetylases” (J Biol Chem, 2007)
